# Assays:
# Assay in all cases: relative viability (nuclei count vs DMSO), 5 days (fraction); higher = more cells survive
# 4EGI-1 + Linsitinib = compound: O=C(O)C(Cc1ccccc1[N+](=O)[O-])=NNc1nc(-c2ccc(Cl)c(Cl)c2)cs1 (mixture of isomers) [4EGI-1] + C[C@]1(O)C[C@@H](c2nc(-c3ccc4ccc(-c5ccccc5)nc4c3)c3c(N)nccn32)C1 [Linsitinib] (partner 1 µM)
# How it was run: (§1)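 Relative viability is defined as nuclei in treated wells over nuclei in vehicle wells. Duplicate plates were run and medians reported. Lung cancer cell lines in 1536-well plates were dosed by pin tool one day after seeding, with one drug or with a fixed anchor-drug dose plus five library-drug doses (not always all listed) in √10 steps, and nuclei were counted after 5 days.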
# 4EGI-1 + Foretinib = compound: O=C(O)C(Cc1ccccc1[N+](=O)[O-])=NNc1nc(-c2ccc(Cl)c(Cl)c2)cs1 (mixture of isomers) [4EGI-1] + COc1cc2c(Oc3ccc(NC(=O)C4(C(=O)Nc5ccc(F)cc5)CC4)cc3F)ccnc2cc1OCCCN1CCOCC1 [Foretinib] (partner 0.25 µM)
# How it was run: as §1
# XMD8-85 + Tozasertib = compound: CN1CCN(CC1)C2=CC(=C(C=C2)NC3=NC=C4C(=N3)N(C5=CC=CC=C5C(=O)N4C)C)OC [XMD8-85] + Cc1cc(Nc2cc(N3CCN(C)CC3)nc(Sc3ccc(NC(=O)C4CC4)cc3)n2)n[nH]1 [Tozasertib] (partner 0.1 µM)
# How it was run: as §1
# 4EGI-1 + Bortezomib = compound: O=C(O)C(Cc1ccccc1[N+](=O)[O-])=NNc1nc(-c2ccc(Cl)c(Cl)c2)cs1 (mixture of isomers) [4EGI-1] + CC(C)C[C@H](NC(=O)[C@H](Cc1ccccc1)NC(=O)c1cnccn1)B(O)O [Bortezomib] (partner 0.002 µM)
# How it was run: as §1
Cell Line,relative viability (4EGI-1 + Linsitinib; first compound 0.5 µM),relative viability (4EGI-1 + Linsitinib; first compound 5 µM),relative viability (4EGI-1 + Linsitinib; first compound 15.81 µM),relative viability (4EGI-1 + Linsitinib; first compound 50 µM),relative viability (4EGI-1 + Foretinib; first compound 0.5 µM),relative viability (4EGI-1 + Foretinib; first compound 5 µM),relative viability (4EGI-1 + Foretinib; first compound 15.81 µM),relative viability (4EGI-1 + Foretinib; first compound 50 µM),relative viability (XMD8-85 + Tozasertib; first compound 0.08 µM),relative viability (XMD8-85 + Tozasertib; first compound 0.253 µM),relative viability (XMD8-85 + Tozasertib; first compound 0.8 µM),relative viability (XMD8-85 + Tozasertib; first compound 2.53 µM),relative viability (XMD8-85 + Tozasertib; first compound 8 µM),relative viability (4EGI-1 + Bortezomib; first compound 0.5 µM),relative viability (4EGI-1 + Bortezomib; first compound 5 µM),relative viability (4EGI-1 + Bortezomib; first compound 15.81 µM),relative viability (4EGI-1 + Bortezomib; first compound 50 µM),relative viability (4EGI-1 + Linsitinib; first compound 1.581 µM),relative viability (4EGI-1 + Foretinib; first compound 1.581 µM),relative viability (4EGI-1 + Bortezomib; first compound 1.581 µM)
NCI-H838,1.19,1.02,0.854,0.434,1.03,1.13,1.04,0.369,0.291,0.305,0.267,0.25,0.165,0.865,0.82,0.612,0.167,–,–,–
COR-L 105,1.04,0.999,0.988,0.675,0.983,0.993,0.863,0.728,0.405,0.363,0.338,0.377,0.26,0.876,0.725,0.424,0.252,0.85,0.172,0.592
HCC-366,0.791,0.741,0.772,0.382,0.972,0.905,0.985,0.308,0.138,0.128,0.0974,0.0608,0.0744,1.12,1.04,1.09,0.19,0.697,0.701,0.841
NCI-H650,0.996,1.24,0.915,0.732,1.13,1,0.958,0.897,0.738,0.713,0.68,0.608,0.338,0.905,0.753,0.899,0.499,–,–,–
NCI-H1299,0.944,0.994,1.05,0.849,1.08,1.11,1.09,1.06,–,–,–,–,–,1.02,0.993,0.997,1.02,0.931,1.11,1.04
LCLC-97TM1,0.161,0.203,0.198,0.165,0.926,0.941,0.936,0.127,0.278,0.23,0.225,0.225,0.168,0.589,0.942,0.271,0.277,–,0.725,–
NCI-H1666,0.804,0.778,0.583,0.291,1.01,1.04,0.671,0.417,0.579,0.641,0.637,0.601,0.464,1.22,0.862,0.474,0.228,0.771,0.924,0.693
NCI-H1993,0.754,0.737,0.699,0.706,0.812,0.708,0.684,0.614,0.583,0.628,0.56,0.557,0.546,1.19,0.988,0.689,0.516,0.757,0.7,0.899
BEN,1.02,1.02,0.808,0.729,0.694,0.781,0.753,0.524,0.467,–,0.426,0.331,0.457,0.848,0.903,0.754,0.604,1.03,0.474,1.22
HCC-827,0.969,0.905,–,0.878,1.07,1.05,–,0.339,–,0.437,0.642,0.387,0.365,0.991,1.02,0.267,0.519,0.866,0.889,0.853
HOP-62,1.19,1.16,1.03,0.707,1.17,1.1,1.17,0.656,0.371,0.342,0.403,0.301,0.177,1.32,1.03,1.06,0.45,–,0.716,–
NCI-H1355,0.927,0.714,0.611,0.614,0.932,0.962,0.851,0.738,0.473,0.467,0.525,0.376,0.314,1.32,1.11,1.18,0.545,0.831,0.87,1.17
A549,0.825,0.573,0.579,0.611,1.01,0.996,0.883,0.697,–,–,–,–,–,–,–,–,–,–,0.771,–
A-427,1.09,1.03,1.07,0.618,1.16,0.983,0.867,0.646,0.193,0.225,0.203,0.185,0.186,0.984,0.911,0.832,0.625,0.93,0.944,0.795
NCI-H358,0.882,0.889,0.69,0.208,0.739,0.84,0.515,0.11,0.106,0.0979,0.119,0.11,0.0877,–,–,–,–,0.689,0.657,–
NCI-H23,0.718,0.704,0.629,0.496,1.04,1.1,0.933,0.638,0.492,0.369,0.34,0.272,0.209,1.16,1.18,1.03,0.656,–,–,–
LXF-289,0.984,0.921,0.935,0.673,0.992,1,0.943,0.771,0.194,0.216,0.171,0.142,0.166,1.06,1,0.876,0.443,0.96,0.944,1.06
NCI-H1975,0.902,1.01,1.01,0.698,0.932,1.01,0.844,0.729,0.701,0.721,0.763,0.485,0.145,0.475,0.399,0.36,0.348,0.941,0.814,0.393
NCI-H1703,1.4,1.06,1.27,0.994,0.38,0.348,0.349,0.326,–,–,–,–,–,0.403,0.446,0.365,0.201,0.632,0.373,0.363
201T,1.04,1.03,0.913,0.899,1.2,1.18,0.985,0.63,0.964,0.975,–,0.808,0.771,1.15,1.08,1.09,1.03,0.922,0.861,1.05

Cell Line,relative viability (4EGI-1 + Linsitinib; first compound 0.5 µM),relative viability (4EGI-1 + Linsitinib; first compound 5 µM),relative viability (4EGI-1 + Linsitinib; first compound 15.81 µM),relative viability (4EGI-1 + Linsitinib; first compound 50 µM),relative viability (4EGI-1 + Foretinib; first compound 0.5 µM),relative viability (4EGI-1 + Foretinib; first compound 5 µM),relative viability (4EGI-1 + Foretinib; first compound 15.81 µM),relative viability (4EGI-1 + Foretinib; first compound 50 µM),relative viability (XMD8-85 + Tozasertib; first compound 0.08 µM),relative viability (XMD8-85 + Tozasertib; first compound 0.253 µM),relative viability (XMD8-85 + Tozasertib; first compound 0.8 µM),relative viability (XMD8-85 + Tozasertib; first compound 2.53 µM),relative viability (XMD8-85 + Tozasertib; first compound 8 µM),relative viability (4EGI-1 + Bortezomib; first compound 0.5 µM),relative viability (4EGI-1 + Bortezomib; first compound 5 µM),relative viability (4EGI-1 + Bortezomib; first compound 15.81 µM),relative viability (4EGI-1 + Bortezomib; first compound 50 µM),relative viability (4EGI-1 + Linsitinib; first compound 1.581 µM),relative viability (4EGI-1 + Foretinib; first compound 1.581 µM),relative viability (4EGI-1 + Bortezomib; first compound 1.581 µM)
LK-2,0.587,0.777,0.604,0.549,1.23,1.36,1.42,0.929,–,0.156,0.188,0.158,0.181,–,–,–,–,0.357,–,–
HCC-78,0.612,0.453,0.484,0.479,0.636,0.547,0.416,0.525,0.407,0.465,0.397,0.434,0.296,0.618,0.513,0.432,0.399,0.373,–,0.466
EMC-BAC-2,0.86,0.791,0.777,0.736,1.2,1.04,0.936,0.984,0.293,0.275,0.285,0.239,0.224,1.17,1.13,1.05,0.88,0.748,0.907,1.02
SK-MES-1,1.12,1.1,0.887,0.987,1.04,1.03,0.521,0.824,0.998,0.939,–,0.81,0.276,–,–,–,–,1.07,0.955,–
IA-LM,0.536,0.649,0.251,0.163,1.25,0.966,0.663,0.0865,–,–,–,–,–,0.873,0.552,0.144,0.0723,0.492,1.04,0.707
NCI-H1563,1.31,1.29,1.22,0.883,0.915,0.962,0.789,0.557,–,–,–,–,–,0.895,0.847,0.818,0.468,0.979,0.853,0.728
SW 900,–,–,–,–,0.935,0.908,0.677,0.546,0.553,0.657,0.557,0.424,0.312,–,–,–,–,–,–,–
NCI-H2170,–,–,–,–,0.951,0.74,1.01,0.582,0.681,0.671,0.731,0.639,0.456,–,–,–,–,–,0.958,–
NCI-H1395,1.29,1.52,0.874,0.534,1.15,1.04,0.986,0.589,0.768,0.786,0.716,0.693,0.571,–,–,–,–,–,0.86,–
NCI-H522,–,–,–,–,–,–,–,–,0.557,0.562,0.41,0.519,0.467,–,–,–,–,–,–,–
HCC-44,0.708,0.681,0.585,0.406,–,–,–,–,0.802,0.898,1.15,0.51,0.356,0.924,0.877,0.753,0.235,0.361,–,0.637
EBC-1,0.992,0.995,0.652,1.04,0.0952,0.0859,0.0982,0.103,–,–,–,–,–,0.668,0.704,0.52,0.181,1,0.0989,0.547
NCI-H1944,1.39,1.21,1.1,1.13,0.894,0.974,0.782,0.655,0.27,0.277,0.264,0.256,0.21,–,–,–,–,–,–,–
ChaGo-K-1,–,–,–,–,0.942,0.816,0.975,0.799,0.225,0.233,0.207,0.196,0.144,0.995,0.954,0.659,0.434,–,0.935,–
NCI-H1623,–,–,–,–,0.889,0.941,0.584,0.707,0.495,0.336,0.41,0.421,0.367,–,–,–,–,–,0.608,–
NCI-H1650,–,–,–,–,1.37,1.04,0.749,0.405,0.358,0.409,0.413,0.216,0.177,0.197,0.219,0.216,0.189,–,–,–
NCI-H1648,–,–,–,–,–,–,–,–,0.438,0.394,–,–,0.324,–,–,–,–,–,–,–
NCI-H2342,–,–,–,–,1.15,1.2,1.05,0.831,0.529,0.46,0.478,0.424,0.405,–,–,–,–,–,1.06,–
Calu-6,1.11,0.995,0.851,0.9,0.933,0.919,0.912,0.659,–,–,–,–,–,0.982,1.15,0.989,0.33,0.729,0.717,0.877
NCI-H1793,1,0.819,0.645,0.747,0.645,0.686,0.443,0.33,0.277,0.322,0.297,0.289,0.255,–,–,–,–,0.996,0.948,–

# From the supplement of paper PMC10307832
